According to US20260125378A2, “Heterocyclic Compounds” (BeOne Medicines I GmbH, priority 2023, published 2026):

How the values were obtained:
[1] = target: T1, Full length DGKα (D21-10BG, SignalChem) (Homo sapiens, UniProt P23743); assay: Biochemical DGK IC50 assay (ADP-Glo, lipid micelle substrate), DGKα; conditions: 1 hour preincubation, 1 hour reaction, room temperature
T1 construct: Full length DGKα (D21-10BG, SignalChem); purchased SignalChem D21-10BG
How it was run: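 ADP-Glo luminescence quantified ADP produced after a 1 h room-temperature reaction of full-length DGKα on DAG/PS micelles, in HEPES buffer containing MgCl2, CaCl2, vanadate, BSA and Tween-20. IC50 values derive from activity inhibition over a compound concentration series.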

[2] = target: T2, Full length DGKζ (in-house protein M1-V929) (Homo sapiens, UniProt Q13574); assay: Biochemical DGK IC50 assay (ADP-Glo, lipid micelle substrate), DGKζ; conditions: 1 hour preincubation, 1 hour reaction, room temperature
T2 construct: His (N); TEV site (N); made in house; host or cells: Sf9 insect cells (Bac-to-Bac baculovirus)
How it was run: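 Enzyme: full-length human DGKζ M1-V929, produced in baculovirus-infected Sf9 cells; substrate DAG/PS micelles. Buffer 50 mM HEPES, 10 mM MgCl2, 0.01 mM CaCl2, 0.1 mM Na3VO4.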

T2 sequence (Q13574 1-929 isoform Q13574-4): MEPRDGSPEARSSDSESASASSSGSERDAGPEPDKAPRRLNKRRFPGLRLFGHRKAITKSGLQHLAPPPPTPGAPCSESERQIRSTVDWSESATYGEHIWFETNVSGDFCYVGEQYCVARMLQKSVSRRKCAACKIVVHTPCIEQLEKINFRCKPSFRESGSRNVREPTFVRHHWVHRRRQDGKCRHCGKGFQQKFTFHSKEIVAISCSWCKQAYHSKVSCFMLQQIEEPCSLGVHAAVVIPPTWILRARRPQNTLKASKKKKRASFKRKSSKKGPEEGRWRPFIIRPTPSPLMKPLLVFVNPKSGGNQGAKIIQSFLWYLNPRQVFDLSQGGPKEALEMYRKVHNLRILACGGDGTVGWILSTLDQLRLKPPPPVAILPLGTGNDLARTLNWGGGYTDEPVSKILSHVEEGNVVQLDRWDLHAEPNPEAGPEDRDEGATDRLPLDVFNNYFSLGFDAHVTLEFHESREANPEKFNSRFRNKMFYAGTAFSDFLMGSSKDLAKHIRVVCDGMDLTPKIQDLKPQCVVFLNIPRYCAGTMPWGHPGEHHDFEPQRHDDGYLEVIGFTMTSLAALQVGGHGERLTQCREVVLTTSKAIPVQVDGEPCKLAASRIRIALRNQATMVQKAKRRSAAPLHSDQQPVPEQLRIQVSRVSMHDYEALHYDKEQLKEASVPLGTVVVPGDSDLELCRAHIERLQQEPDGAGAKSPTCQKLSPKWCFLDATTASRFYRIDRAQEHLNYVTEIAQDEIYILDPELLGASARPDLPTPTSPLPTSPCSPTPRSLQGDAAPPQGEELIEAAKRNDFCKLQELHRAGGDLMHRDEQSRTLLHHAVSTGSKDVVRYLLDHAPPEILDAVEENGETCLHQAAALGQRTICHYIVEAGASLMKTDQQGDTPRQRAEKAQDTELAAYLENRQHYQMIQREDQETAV
T1 sequence (P23743 whole entry): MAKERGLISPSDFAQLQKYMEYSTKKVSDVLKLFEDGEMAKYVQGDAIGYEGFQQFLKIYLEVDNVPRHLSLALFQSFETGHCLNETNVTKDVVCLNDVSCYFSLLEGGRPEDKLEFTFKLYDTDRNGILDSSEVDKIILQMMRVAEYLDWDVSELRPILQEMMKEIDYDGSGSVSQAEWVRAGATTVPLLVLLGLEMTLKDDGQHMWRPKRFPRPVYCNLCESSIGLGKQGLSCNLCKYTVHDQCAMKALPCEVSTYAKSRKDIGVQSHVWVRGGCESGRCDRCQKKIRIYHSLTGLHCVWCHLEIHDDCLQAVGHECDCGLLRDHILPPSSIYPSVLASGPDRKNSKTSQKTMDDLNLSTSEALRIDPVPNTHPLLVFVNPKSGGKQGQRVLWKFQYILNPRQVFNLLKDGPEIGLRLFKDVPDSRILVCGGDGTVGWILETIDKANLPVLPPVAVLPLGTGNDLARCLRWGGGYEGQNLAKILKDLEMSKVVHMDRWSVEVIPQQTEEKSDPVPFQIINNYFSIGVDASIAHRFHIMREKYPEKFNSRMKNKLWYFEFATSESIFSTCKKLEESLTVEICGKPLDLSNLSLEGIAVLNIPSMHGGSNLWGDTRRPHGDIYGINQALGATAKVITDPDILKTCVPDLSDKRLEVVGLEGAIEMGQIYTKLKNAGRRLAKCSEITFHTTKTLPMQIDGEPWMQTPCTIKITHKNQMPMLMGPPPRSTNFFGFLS

IC50 [1] [µM]	IC50 [2] [nM]	SMILES
65.6	103	CCn1c(CC#N)nc2c(N3C[C@@H](C)N(C(C)c4cccc(C(F)(F)F)n4)C[C@@H]3C)nc(=O)n(C)c21 (single isomer, unassigned) [Compound A118b]
4.75	14	CC[C@H]1CN(C(C)c2ccc3c(c2)OC(C)(C)CO3)[C@H](CC)CN1c1nc(=O)n(C)c2c1nc(CC#N)n2C (single isomer, unassigned) [Compound A64b]
99.5	15	COCc1cc(F)ccc1C(C)N1C[C@H](C)N(c2nc(=O)n(C)c3c2nc(CC#N)n3C)C[C@H]1C (single isomer, unassigned) [Compound A27b]
> 150	7760	CCn1c(CC#N)nc2c(N3C[C@@H](C)N(C(C)c4ccc(C)cc4C(F)(F)F)C[C@@H]3C)nc(=O)n(C)c21 (single isomer, unassigned) [Compound A116a]
> 150	1180	CCn1c(CC#N)nc2c(N3C[C@@H](C)N(C(C)c4cc5c(cc4Cl)OC(C)(C)O5)C[C@@H]3C)nc(=O)n(C)c21 (stereo partly drawn) [Compound A170, 2-(6-((2S,5R)-4-(1-(6-chloro-2,2-dimethylbenzo[d][1,3]dioxol-5-yl)ethyl)-2,5-dimethylpiperazin-1-yl)-9-ethyl-3-methyl-2-oxo-3,9-dihydro-2H-purin-8-yl)acetonitrile]
> 150	428	CCn1c(CC#N)nc2c(N3C[C@@H](C)N(C(C)c4cccc(C5COC5)c4)C[C@@H]3C)nc(=O)n(C)c21 (stereo partly drawn) [Compound A127, 2-(6-((2S,5R)-2,5-dimethyl-4-(1-(3-(oxetan-3-yl)phenyl)ethyl)piperazin-1-yl)-9-ethyl-3-methyl-2-oxo-3,9-dihydro-2H-purin-8-yl)acetonitrile]
79.3	410	CCn1c(CC#N)nc2c(N3C[C@@H](C)N(C(C)c4cccc(C)c4)C[C@@H]3C)nc(=O)n(C)c21 (stereo partly drawn) [Compound A45, 2-(6-((2S,5R)-2,5-dimethyl-4-(1-(m-tolyl)ethyl)piperazin-1-yl)-9-ethyl-3-methyl-2-oxo-3,9-dihydro-2H-purin-8-yl)acetonitrile]
6.86	1	CC[C@@H]1CN(c2nc(=O)n(CC)c3c2nc(CC#N)n3C)[C@@H](C)CN1C(C)c1ccc2c(c1)OC(C)(C)CO2 (single isomer, unassigned) [Compound A66b]
